The record followed here is patent publication US20240368135A1 (VERTEX PHARMACEUTICALS INCORPORATED, priority 2021, published 2024).

The target in this test is human NaV 1.8 (Homo sapiens, UniProt Q9Y5Y9). The test can be described thus: E-VIPR assay detecting and measuring NaV inhibition properties. The format is cell-based. The conditions noted are these: HEK cells expressing truncated human NaV 1.8. In a few lines:
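HEK cells expressing truncated, fully active human NaV1.8, with KIR2.1 BacMam co-transduction, were loaded with CC2-DMPE/DiSBAC6(3) voltage-sensing dyes for 20 min at room temperature. Compounds were tested in 11-point 3-fold dilutions (300 nM top final), optionally with 25% human serum, under electrical stimulation with FRET read-out.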

Where [1] appears, read: no human serum, read-out: IC50 in the E-VIPR Assay.
Where [2] appears, read: in the presence of human serum (compound numbers followed by *), read-out: IC50 in the E-VIPR Assay, performed in the presence of human serum.

Where two headings read alike, the source gives them in different places.

Chain of human NaV 1.8 (Q9Y5Y9 126-399 limits assumed): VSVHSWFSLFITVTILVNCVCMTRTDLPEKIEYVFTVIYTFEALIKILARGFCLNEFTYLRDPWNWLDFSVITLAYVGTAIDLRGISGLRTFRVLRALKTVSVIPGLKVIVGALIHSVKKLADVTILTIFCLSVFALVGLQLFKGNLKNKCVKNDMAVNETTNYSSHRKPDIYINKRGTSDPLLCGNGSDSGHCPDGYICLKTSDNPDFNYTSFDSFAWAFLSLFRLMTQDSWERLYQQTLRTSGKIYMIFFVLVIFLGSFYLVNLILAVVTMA
Chain of human NaV 1.8 (Q9Y5Y9 660-890 limits assumed): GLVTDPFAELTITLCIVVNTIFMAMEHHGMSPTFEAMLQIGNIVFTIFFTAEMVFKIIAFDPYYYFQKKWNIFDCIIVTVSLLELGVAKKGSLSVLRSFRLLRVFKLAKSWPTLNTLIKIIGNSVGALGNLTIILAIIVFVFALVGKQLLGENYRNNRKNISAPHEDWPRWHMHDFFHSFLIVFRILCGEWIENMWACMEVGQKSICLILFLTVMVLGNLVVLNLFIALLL
Chain of human NaV 1.8 (Q9Y5Y9 1148-1722 limits assumed): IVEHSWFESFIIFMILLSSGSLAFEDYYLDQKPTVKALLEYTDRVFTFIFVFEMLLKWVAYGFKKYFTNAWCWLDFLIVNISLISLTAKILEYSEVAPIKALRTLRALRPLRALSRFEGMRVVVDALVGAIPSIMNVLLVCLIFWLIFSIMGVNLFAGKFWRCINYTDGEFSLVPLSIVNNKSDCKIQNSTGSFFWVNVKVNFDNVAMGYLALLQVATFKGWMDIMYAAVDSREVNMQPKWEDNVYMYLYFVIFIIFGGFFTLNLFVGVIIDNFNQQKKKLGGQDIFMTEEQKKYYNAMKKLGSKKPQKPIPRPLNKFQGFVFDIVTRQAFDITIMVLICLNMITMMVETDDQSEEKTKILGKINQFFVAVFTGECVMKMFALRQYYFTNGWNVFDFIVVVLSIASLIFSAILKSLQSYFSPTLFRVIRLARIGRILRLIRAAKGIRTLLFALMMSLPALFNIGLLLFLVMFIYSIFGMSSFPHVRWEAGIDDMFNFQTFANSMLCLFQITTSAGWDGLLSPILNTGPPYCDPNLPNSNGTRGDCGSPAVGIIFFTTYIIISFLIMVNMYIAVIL

Regarding `COCC(NC(C)C)c1ccc(NC(=O)[C@@H]2O[C@@](C)(C(F)(F)F)[C@@H](C)[C@H]2c2ccc(F)c(F)c2OC)cn1` (single isomer, unassigned) [Compound 421, rel-(2R*,3S*,4S*,5R*)-3-(3,4-difluoro-2-methoxyphenyl)-N-(6-(1-(isopropylamino)-2-methoxyethyl)pyridin-3-yl)-4,5-dimethyl-5-(trifluoromethyl)-tetrahydrofuran-2-carboxamide], the IC50 under setting [1] lay within 100 to 1000 nM. Turning to `Cc1nocc1NC(=O)[C@@H]1O[C@@](C)(C(F)(F)F)[C@@H](C)[C@H]1c1ccc(F)c(F)c1OCCN1CC(F)C1` [Compound 625, (2R,3S,4S,5R)-3-(3,4-difluoro-2-(2-(3-fluoroazetidin-1-yl)ethoxy)phenyl)-4,5-dimethyl-N-(3-methylisoxazol-4-yl)-5-(trifluoromethyl)tetrahydrofuran-2-carboxamide], the concentration for half-maximal inhibition (IC50) under setting [1] is less than 10 nM. For `CNC(=O)CN(C)c1cc(NC(=O)[C@@H]2O[C@@](C)(C(F)(F)F)[C@@H](C)[C@H]2c2ccc(F)c(F)c2OC)ccn1` [Compound 487, (2R,3S,4S,5R)-3-(3,4-difluoro-2-methoxyphenyl)-4,5-dimethyl-N-(2-(methyl(2-(methylamino)-2-oxoethyl)amino)pyridin-4-yl)-5-(trifluoromethyl)tetrahydrofuran-2-carboxamide], under setting [1], the 50% inhibitory concentration (IC50) is less than 10 nM. Still for that read-out and setting: the figure for `COc1c([C@H]2[C@H](C(=O)Nc3ccnc(N4CCN(C)CC4)c3)O[C@@](C)(C(F)(F)F)[C@H]2C)ccc(F)c1F` [Compound 312, (2R,3S,4S,5R)-3-(3,4-difluoro-2-methoxyphenyl)-4,5-dimethyl-N-(2-(4-methylpiperazin-1-yl)pyridin-4-yl)-5-(trifluoromethyl)-tetrahydrofuran-2-carboxamide] is 10 to 100 nM. As for `CNCc1cc(NC(=O)C2OC(C)(C(F)(F)F)C(C)C2c2ccc(F)c(F)c2OC)c(F)cn1` (stereo not drawn) [Compound 58, 3-(3,4-difluoro-2-methoxy-phenyl)-N-[5-fluoro-2-(methylaminomethyl)-4-pyridyl]-4,5-dimethyl-5-(trifluoromethyl)tetrahydrofuran-2-carboxamide], under setting [2], the half-maximal inhibitory concentration (IC50) was no less than 1000 nM. In the case of `COc1c([C@H]2[C@H](C(=O)Nc3ccnc(N(C)C)c3)O[C@@](C)(C(F)(F)F)[C@H]2C)ccc(F)c1F` [Compound 320, (2R,3S,4S,5R)-3-(3,4-difluoro-2-methoxyphenyl)-N-(2-(dimethylamino)-pyridin-4-yl)-4,5-dimethyl-5-(trifluoromethyl)-tetrahydrofuran-2-carboxamide], under setting [1], the IC50 fell in the range of 10 to 100 nM. With `C[C@H](CO)COc1c([C@H]2[C@H](C(=O)Nc3ccc(C(N)=O)nc3)O[C@@](C)(C(F)(F)F)[C@H]2C)ccc(F)c1F` [Compound 614, 5-((2R,3S,4S,5R)-3-(3,4-difluoro-2-((R)-3-hydroxy-2-methylpropoxy)phenyl)-4,5-dimethyl-5-(trifluoromethyl)tetrahydrofuran-2-carboxamido)picolinamide], the half-inhibitory concentration (IC50) under setting [1] is 10 to 100 nM. Still for that read-out and setting: then `COc1c([C@H]2[C@H](C(=O)Nc3ccnc(OC4CCOCC4)c3)O[C@@](C)(C(F)(F)F)[C@H]2C)ccc(F)c1F` [Compound 195, (2R,3S,4S,5R)-3-(3,4-difluoro-2-methoxyphenyl)-4,5-dimethyl-N-(2-((tetrahydro-2H-pyran-4-yl)oxy)pyridin-4-yl)-5-(trifluoromethyl)tetrahydrofuran-2-carboxamide], with 10 to 100 nM; and `Cc1nn(CCO)cc1NC(=O)[C@@H]1O[C@@](C)(C(F)(F)F)[C@@H](C)[C@H]1c1ccc(F)c(F)c1OC(F)F` (single isomer, unassigned) [Compound 76], with 10 to 100 nM; and `COc1c([C@H]2[C@H](C(=O)Nc3cc(S(C)(=O)=O)nn3C)O[C@@](C)(C(F)(F)F)[C@H]2C)ccc(F)c1F` [Compound 211, (2R,3S,4S,5R)-3-(3,4-difluoro-2-methoxyphenyl)-4,5-dimethyl-N-(1-methyl-3-(methylsulfonyl)-1H-pyrazol-5-yl)-5-(trifluoromethyl)tetrahydrofuran-2-carboxamide], with less than 10 nM. On to `COc1c(C2C(C(=O)Nc3ccn4nnnc4c3)OC(C)(C(F)(F)F)C2C)ccc(F)c1C` (single isomer, unassigned) [Compound 134, 3-(4-fluoro-2-methoxy-3-methyl-phenyl)-4,5-dimethyl-N-(tetrazolo[1,5-a]pyridin-7-yl)-5-(trifluoromethyl)tetrahydrofuran-2-carboxamide], for which, under setting [1], the IC50 is less than 10 nM. On the same count and under the same terms, then `COc1c(C2C(C(=O)Nc3ccc(C(N)=O)nc3)OC(C)(C(F)(F)F)C2C)ccc(C(F)F)c1F` (stereo not drawn) [Compound 158, 5-[[3-[4-(difluoromethyl)-3-fluoro-2-methoxy-phenyl]-4,5-dimethyl-5-(trifluoromethyl)tetrahydrofuran-2-carbonyl]amino]pyridine-2-carboxamide], with 10 to 100 nM. On to `COc1c(C2CC(C)(C(F)(F)F)OC2C(=O)Nc2ccnc(C(O)C(C)O)c2)ccc(F)c1F` (single isomer, unassigned) [Compound 697], for which the concentration for half-maximal inhibition (IC50) under setting [2] is no less than 1000 nM. For the molecule `COc1c([C@H]2[C@H](C(=O)Nc3cc(C4(N)COC4)ncc3F)O[C@@](C)(C(F)(F)F)[C@H]2C)ccc(F)c1F` [Compound 341, (2R,3S,4S,5R)-N-(2-(3-aminooxetan-3-yl)-5-fluoropyridin-4-yl)-3-(3,4-difluoro-2-methoxyphenyl)-4,5-dimethyl-5-(trifluoromethyl)-tetrahydrofuran-2-carboxamide], under setting [1], the IC50 is less than 10 nM.

In the case of `COc1c([C@H]2[C@H](C(=O)Nc3ccnc(C4(O)CCOC4)c3)O[C@@](C)(C(F)(F)F)[C@H]2C)ccc(F)c1F` (single isomer, unassigned) [Compound 220, rel-(2R*,3S*,4S*,5R*)-3-(3,4-difluoro-2-methoxyphenyl)-N-(2-(3-hydroxy-tetrahydrofuran-3-yl)pyridin-4-yl)-4,5-dimethyl-5-(trifluoromethyl)tetrahydrofuran-2-carboxamide], the half-maximal inhibitory concentration (IC50) under setting [1] was less than 10 nM. Still for that read-out and setting: then `[2H]C([2H])([2H])Oc1c([C@H]2[C@H](C(=O)Nc3ccnc(N4C(=O)CN(C)C[C@H]4C)c3)O[C@@](C)(C(F)(F)F)[C@H]2C)ccc(F)c1F` [Compound 519, (2R,3S,4S,5R)-3-[3,4-difluoro-2-(trideuteriomethoxy)phenyl]-N-[2-[(2R)-2,4-dimethyl-6-oxo-piperazin-1-yl]-4-pyridyl]-4,5-dimethyl-5-(trifluoromethyl)tetrahydrofuran-2-carboxamide], with less than 10 nM; and `COc1c([C@H]2[C@H](C(=O)Nc3ccnc(C4(N)COC4)n3)O[C@@](C)(C(F)(F)F)[C@H]2C)ccc(F)c1F` [Compound 310, (2R,3S,4S,5R)-N-[2-(3-aminooxetan-3-yl)pyrimidin-4-yl]-3-(3,4-difluoro-2-methoxy-phenyl)-4,5-dimethyl-5-(trifluoromethyl)tetrahydrofuran-2-carboxamide], with 10 to 100 nM. For `CCOc1c(C2C(C(=O)Nc3ccnc(S(C)(=N)=O)c3)OC(C)(C(F)(F)F)C2C)ccc(F)c1F` (single isomer, unassigned) [Compound 109, 3-(2-ethoxy-3,4-difluoro-phenyl)-4,5-dimethyl-N-[2-(methylsulfonimidoyl)-4-pyridyl]-5-(trifluoromethyl)tetrahydrofuran-2-carboxamide], under setting [1], the 50% inhibitory concentration (IC50) lay in the range of 100 to 1000 nM. The same measure, in the same setting: the figure for `C[C@H]1[C@@H](c2ccc(F)c(F)c2OCCO)[C@H](C(=O)Nc2ccnnc2)O[C@@]1(C)C(F)(F)F` [Compound 576, (2R,3S,4S,5R)-3-[3,4-difluoro-2-(2-hydroxyethoxy)phenyl]-4,5-dimethyl-N-pyridazin-4-yl-5-(trifluoromethyl)tetrahydrofuran-2-carboxamide] is less than 10 nM. Same read-out and setting: the figure for `COCC(N)c1cc(NC(=O)[C@@H]2O[C@@](C)(C(F)(F)F)[C@@H](C)[C@H]2c2ccc(F)c(F)c2OC)c(F)cn1` (single isomer, unassigned) [Compound 423, rel-(2R*,3S*,4S*,5R*)-N-(2-(1-amino-2-methoxyethyl)-5-fluoropyridin-4-yl)-3-(3,4-difluoro-2-methoxyphenyl)-4,5-dimethyl-5-(trifluoromethyl)-tetrahydrofuran-2-carboxamide] is less than 10 nM; for `COCC(C)(N)c1cc(NC(=O)[C@@H]2O[C@@](C)(C(F)(F)F)[C@@H](C)[C@H]2c2ccc(F)c(F)c2OC)c(F)cn1` (single isomer, unassigned) [Compound 354, rel-(2R*,3S*,4S*,5R*)-N-(2-(2-amino-1-methoxypropan-2-yl)-5-fluoropyridin-4-yl)-3-(3,4-difluoro-2-methoxyphenyl)-4,5-dimethyl-5-(trifluoromethyl)-tetrahydrofuran-2-carboxamide] it is less than 10 nM. Still for that read-out and setting: then `COc1c(C2C(C(=O)Nc3ccnc(C(O)CO)c3)OC(C)(C(F)(F)F)C2C)ccc(F)c1F` (single isomer, unassigned) [Compound 46, 3-(3,4-difluoro-2-methoxy-phenyl)-N-[2-(1,2-dihydroxyethyl)-4-pyridyl]-4,5-dimethyl-5-(trifluoromethyl)tetrahydrofuran-2-carboxamide], with less than 10 nM. On to `Cc1nn(C(F)F)cc1NC(=O)[C@@H]1O[C@@](C)(C(F)(F)F)[C@@H](C)[C@H]1c1ccc(F)c(F)c1CN1CC(O)C1` (racemic) [Compound 673, rac-(2R,3S,4S,5R)-3-(3,4-difluoro-2-((3-hydroxyazetidin-1-yl)methyl)phenyl)-N-(1-(difluoromethyl)-3-methyl-1H-pyrazol-4-yl)-4,5-dimethyl-5-(trifluoromethyl)tetrahydrofuran-2-carboxamide], for which the 50% inhibitory concentration (IC50) under setting [1] was in the range of 100 to 1000 nM. On the same count and under the same terms, then `C[C@H]1[C@@H](c2ccc(F)c(F)c2OC(F)F)[C@H](C(=O)Nc2ccc(=O)n(C)c2)O[C@@]1(C)C(F)(F)F` (single isomer, unassigned) [Compound 68], with 10 to 100 nM.

By IC50 is commonly meant the concentration that inhibits the measured activity by half.
